23 compounds from PubChem BioAssay AID493211 (Johns Hopkins Ion Channel Center, 2011) can be followed below.

Active and inactive are the calls of the source.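 How the source made its calls: active means switches on the TRPC4 calcium channel at some tested dose and gives a concentration response curve; inactive means the rest.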

The target in the first assay is TRPC4 (mouse), transient receptor potential cation channel C4. The experiment in a line: TRPC4 channel activators, dose response, cell-based, HEK293 TRPC4/mu-opioid, Fluo-4 calcium flux (AID 493211). The note with it: HEK293 TRPC4/mu-opioid cells, Fluo-4 calcium fluorescence ratio.
For `CN1CCN(c2ccc([N+](=O)[O-])c3cccnc23)CC1`, the EC50 is 9.12 nM.

Still in this assay, the particulars now being: HEK293 TRPC4/mu-opioid cells, Fluo-4 calcium fluorescence ratio; at 20 µM (top of the series).
In the case of `O=[N+]([O-])c1ccc(N2CCN(c3ccccn3)CC2)c2ncccc12`, the “fluorescence ratio, percent of baseline (100 = none)” value (from here on “fluorescence ratio, percent”) was “inactive”.
For the compound `O=[N+]([O-])c1ccc(N2CCN(c3ncccn3)CC2)c2ncccc12`, the “fluorescence ratio, percent” value was “inactive”.
In the case of `C[C@@H]1CN(c2ccc([N+](=O)[O-])c3cccnc23)[C@@H](C)CN1`, the “fluorescence ratio, percent” value is “inactive”.
As for `CC1CC(C)CN(c2ccc([N+](=O)[O-])c3cccnc23)C1` (stereo not drawn), the “fluorescence ratio, percent” value is “inactive”.
As for `CCN(CC)c1ccc([N+](=O)[O-])c2cccnc12`, the “fluorescence ratio, percent” value is “inactive”.
Consider `N#Cc1ccccc1C1CCN(c2ccc([N+](=O)[O-])c3cccnc23)CC1`, for which the “fluorescence ratio, percent” value is “inactive”.
Consider `COc1ccc(N2CCN(c3ccc([N+](=O)[O-])c4cccnc34)CC2)cc1`, for which the “fluorescence ratio, percent” value was “inactive”.
Same read-out and setting: as for `O=[N+]([O-])c1ccc(N2CCOCC2)c2ncccc12`, the entry is “inactive”; as for `O=[N+]([O-])c1ccc(N2CCC3(C=Cc4ccccc43)CC2)c2ncccc12`, “inactive”; as for `N#Cc1ccccc1N1CCN(c2ccc([N+](=O)[O-])c3cccnc23)CC1`, “inactive”.
Regarding `O=[N+]([O-])c1ccc(N2CCN(c3ccncc3)CC2)c2ncccc12`, the “fluorescence ratio, percent” value was “inactive”.
On the same count and under the same terms, as for `O=C1NCCC1Nc1ccc([N+](=O)[O-])c2cccnc12` (stereo not drawn), the entry is “inactive”; as for `O=C1CC(Nc2ccc([N+](=O)[O-])c3cccnc23)CN1` (stereo not drawn), “inactive”; as for `COC(=O)C1CCCN(c2ccc([N+](=O)[O-])c3cccnc23)C1` (stereo not drawn), “inactive”.
As to `C[C@H]1CCCN1c1ccc([N+](=O)[O-])c2cccnc12`, the “fluorescence ratio, percent” value is “inactive”.
Turning to `COc1ccccc1N1CCN(c2ccc([N+](=O)[O-])c3cccnc23)CC1`, the “fluorescence ratio, percent” value was “inactive”.
`O=[N+]([O-])c1ccc(N2CCN(c3ccc(F)cc3F)CC2)c2ncccc12`: the “fluorescence ratio, percent” value is “inactive”.
Take `O=[N+]([O-])c1ccc(N2CCC2)c2ncccc12`: the “fluorescence ratio, percent” value is “inactive”.
`CCOC(=O)NC1CCN(c2ccc([N+](=O)[O-])c3cccnc23)CC1`: the “fluorescence ratio, percent” value was “inactive”.
With `O=[N+]([O-])c1ccc(N2CCOc3ccccc32)c2ncccc12`, the “fluorescence ratio, percent” value was “inactive”.
On to `O=[N+]([O-])c1ccc(N2CCC3(CCc4ccccc43)CC2)c2ncccc12`, for which the “fluorescence ratio, percent” value was “inactive”.
With `CC(C)(C)OC(=O)N1CCN(c2ccc([N+](=O)[O-])c3cccnc23)CC1`, the “fluorescence ratio, percent” value is “inactive”.
